Data taken from PubChem BioAssay (NCI).
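Protocol summary: plate cells (96-well), add compound at 5 concentrations, incubate 48 h, interpolate endpoints linearly. GI50: concentration for 50% inhibition of growth. Definition used: TGI = concentration required for complete inhibition of growth.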

Experiments:
Experiment in all cases: DTP human tumour cell line panel, 48 h
ACHN renal = tested on: ACHN renal
OVCAR-3 ovarian = tested on: OVCAR-3 ovarian
SNB-19 CNS = tested on: SNB-19 CNS
MOLT-4 leukemia = tested on: MOLT-4 leukemia
SK-OV-3 ovarian = tested on: SK-OV-3 ovarian
SF-268 CNS = tested on: SF-268 CNS
OVCAR-8 ovarian = tested on: OVCAR-8 ovarian
UACC-62 melanoma = tested on: UACC-62 melanoma
A498 renal = tested on: A498 renal
RPMI-8226 leukemia = tested on: RPMI-8226 leukemia
DU-145 prostate = tested on: DU-145 prostate
IGROV1 ovarian = tested on: IGROV1 ovarian
CAKI-1 renal = tested on: CAKI-1 renal
HCT-116 colon = tested on: HCT-116 colon
OVCAR-5 ovarian = tested on: OVCAR-5 ovarian
NCI-H23 lung = tested on: NCI-H23 lung
NCI-H460 lung = tested on: NCI-H460 lung
EKVX NSCLC = tested on: EKVX NSCLC
U251 CNS = tested on: U251 CNS
LOX IMVI melanoma = tested on: LOX IMVI melanoma
T-47D breast = tested on: T-47D breast
MDA-MB-231 breast = tested on: MDA-MB-231 breast
PC-3 prostate = tested on: PC-3 prostate
SR leukemia = tested on: SR leukemia
SF-295 CNS = tested on: SF-295 CNS
A549 NSCLC = tested on: A549 NSCLC
MALME-3M melanoma = tested on: MALME-3M melanoma
UACC-257 melanoma = tested on: UACC-257 melanoma
CCRF-CEM leukemia = tested on: CCRF-CEM leukemia
HOP-92 NSCLC = tested on: HOP-92 NSCLC
OVCAR-4 ovarian = tested on: OVCAR-4 ovarian
HOP-62 NSCLC = tested on: HOP-62 NSCLC
BT-549 breast = tested on: BT-549 breast
K-562 leukemia = tested on: K-562 leukemia
HS 578T breast = tested on: HS 578T breast
SN12C renal = tested on: SN12C renal
HCC-2998 colon = tested on: HCC-2998 colon
COLO 205 colon = tested on: COLO 205 colon
HL-60(TB) leukemia = tested on: HL-60(TB) leukemia
NCI-H522 lung = tested on: NCI-H522 lung
TK-10 renal = tested on: TK-10 renal
HCT-15 colon = tested on: HCT-15 colon
NCI/ADR-RES ovarian = tested on: NCI/ADR-RES ovarian
SK-MEL-2 melanoma = tested on: SK-MEL-2 melanoma
SK-MEL-5 melanoma = tested on: SK-MEL-5 melanoma
HT29 colon = tested on: HT29 colon
MCF7 breast = tested on: MCF7 breast
786-0 renal = tested on: 786-0 renal
SNB-75 CNS = tested on: SNB-75 CNS
UO-31 renal = tested on: UO-31 renal
M14 melanoma = tested on: M14 melanoma
SK-MEL-28 melanoma = tested on: SK-MEL-28 melanoma
KM12 colon = tested on: KM12 colon
SF-539 CNS = tested on: SF-539 CNS
MDA-MB-435 = tested on: MDA-MB-435
RXF 393 renal = tested on: RXF 393 renal
NCI-H226 lung = tested on: NCI-H226 lung
SW-620 colon = tested on: SW-620 colon

CCCCCCCCCCCCNC(=O)N[C@H](C(=O)N[C@H]1/C=C/OCCNC(=O)/C=C/[C@H](C(C)C)NC1=O)C(C)C
GI50 (ACHN renal): 51.3 µM | TGI (ACHN renal): > 100 µM | GI50 (OVCAR-3 ovarian): 0.568 µM | TGI (OVCAR-3 ovarian): > 78.7 µM | GI50 (SNB-19 CNS): 4.3 µM | TGI (SNB-19 CNS): > 100 µM | GI50 (MOLT-4 leukemia): 3.26 µM | TGI (MOLT-4 leukemia): > 100 µM | GI50 (SK-OV-3 ovarian): > 75.3 µM | TGI (SK-OV-3 ovarian): > 100 µM | GI50 (SF-268 CNS): 7.99 µM | TGI (SF-268 CNS): > 100 µM | GI50 (OVCAR-8 ovarian): 13.7 µM | TGI (OVCAR-8 ovarian): 34.1 µM | GI50 (UACC-62 melanoma): 3.1 µM | TGI (UACC-62 melanoma): 39 µM | GI50 (A498 renal): 7.81 µM | TGI (A498 renal): 57 µM | GI50 (RPMI-8226 leukemia): 0.389 µM | TGI (RPMI-8226 leukemia): 59.4 µM | GI50 (DU-145 prostate): 14 µM | TGI (DU-145 prostate): > 100 µM | GI50 (IGROV1 ovarian): 2.12 µM | TGI (IGROV1 ovarian): > 100 µM | GI50 (CAKI-1 renal): > 100 µM | TGI (CAKI-1 renal): > 100 µM | GI50 (HCT-116 colon): 1.67 µM | TGI (HCT-116 colon): 21.7 µM | GI50 (OVCAR-5 ovarian): 6.82 µM | TGI (OVCAR-5 ovarian): > 92.7 µM | GI50 (NCI-H23 lung): 0.973 µM | TGI (NCI-H23 lung): > 100 µM | GI50 (NCI-H460 lung): 6.16 µM | TGI (NCI-H460 lung): 61.3 µM | GI50 (EKVX NSCLC): 36.6 µM | TGI (EKVX NSCLC): > 100 µM | GI50 (U251 CNS): 2.15 µM | TGI (U251 CNS): > 55.2 µM | GI50 (LOX IMVI melanoma): 9.4 µM | TGI (LOX IMVI melanoma): 36.4 µM | GI50 (T-47D breast): 3.14 µM | TGI (T-47D breast): > 100 µM | GI50 (MDA-MB-231 breast): 11.7 µM | TGI (MDA-MB-231 breast): 49.3 µM | GI50 (PC-3 prostate): 0.682 µM | TGI (PC-3 prostate): > 100 µM | GI50 (SR leukemia): 0.393 µM | TGI (SR leukemia): 20.9 µM | GI50 (SF-295 CNS): 21.4 µM | TGI (SF-295 CNS): > 100 µM | GI50 (A549 NSCLC): 32.3 µM | TGI (A549 NSCLC): > 100 µM | GI50 (MALME-3M melanoma): 39.3 µM | TGI (MALME-3M melanoma): > 100 µM | GI50 (UACC-257 melanoma): 20 µM | TGI (UACC-257 melanoma): > 93.7 µM | GI50 (CCRF-CEM leukemia): 2.16 µM | TGI (CCRF-CEM leukemia): > 100 µM | GI50 (HOP-92 NSCLC): 5.14 µM | TGI (HOP-92 NSCLC): 58.7 µM | GI50 (OVCAR-4 ovarian): 3.61 µM | TGI (OVCAR-4 ovarian): > 100 µM | GI50 (HOP-62 NSCLC): 8.5 µM | TGI (HOP-62 NSCLC): 34 µM | GI50 (BT-549 breast): 2.19 µM | TGI (BT-549 breast): 33.6 µM | GI50 (K-562 leukemia): 9.15 µM | TGI (K-562 leukemia): > 100 µM | GI50 (HS 578T breast): 3.22 µM | TGI (HS 578T breast): 38.1 µM | GI50 (SN12C renal): 23.6 µM | TGI (SN12C renal): > 100 µM | GI50 (HCC-2998 colon): 12.9 µM | TGI (HCC-2998 colon): > 60.1 µM | GI50 (COLO 205 colon): 20 µM | TGI (COLO 205 colon): > 57.4 µM | GI50 (HL-60(TB) leukemia): 14.7 µM | TGI (HL-60(TB) leukemia): 55.7 µM | GI50 (NCI-H522 lung): 0.372 µM | TGI (NCI-H522 lung): 5.2 µM | GI50 (TK-10 renal): 10.3 µM | TGI (TK-10 renal): > 76.4 µM | GI50 (HCT-15 colon): > 66.3 µM | TGI (HCT-15 colon): > 100 µM | GI50 (NCI/ADR-RES ovarian): > 100 µM | TGI (NCI/ADR-RES ovarian): > 100 µM | GI50 (SK-MEL-2 melanoma): 4 µM | TGI (SK-MEL-2 melanoma): > 59.2 µM | GI50 (SK-MEL-5 melanoma): 2.03 µM | TGI (SK-MEL-5 melanoma): 14.8 µM | GI50 (HT29 colon): 0.599 µM | TGI (HT29 colon): 65.4 µM | GI50 (MCF7 breast): 0.385 µM | TGI (MCF7 breast): > 100 µM | GI50 (786-0 renal): 40.1 µM | TGI (786-0 renal): > 100 µM | GI50 (SNB-75 CNS): 4.31 µM | TGI (SNB-75 CNS): > 100 µM | GI50 (UO-31 renal): > 100 µM | TGI (UO-31 renal): > 100 µM | GI50 (M14 melanoma): 20.2 µM | TGI (M14 melanoma): > 70.3 µM | GI50 (SK-MEL-28 melanoma): 3.28 µM | TGI (SK-MEL-28 melanoma): 26.2 µM | GI50 (KM12 colon): 4.72 µM | TGI (KM12 colon): 30 µM | GI50 (SF-539 CNS): 2.49 µM | TGI (SF-539 CNS): 18.4 µM | GI50 (MDA-MB-435): 1.48 µM | TGI (MDA-MB-435): > 100 µM | GI50 (RXF 393 renal): 3.65 µM | TGI (RXF 393 renal): 28.2 µM | GI50 (NCI-H226 lung): 4.53 µM | TGI (NCI-H226 lung): > 19.7 µM

CC(=O)OC1=C(c2ccccc2)S(=O)(=O)c2ccccc21
TGI (ACHN renal): > 100 µM | TGI (OVCAR-3 ovarian): > 100 µM | TGI (SNB-19 CNS): > 100 µM | TGI (MOLT-4 leukemia): > 100 µM | TGI (SF-268 CNS): > 100 µM | TGI (OVCAR-8 ovarian): > 100 µM | TGI (UACC-62 melanoma): > 100 µM | TGI (A498 renal): > 100 µM | TGI (RPMI-8226 leukemia): > 100 µM | TGI (DU-145 prostate): > 100 µM | TGI (IGROV1 ovarian): > 100 µM | TGI (CAKI-1 renal): > 100 µM | TGI (HCT-116 colon): > 100 µM | TGI (OVCAR-5 ovarian): > 100 µM | TGI (NCI-H23 lung): > 100 µM | TGI (NCI-H460 lung): > 100 µM | TGI (EKVX NSCLC): > 100 µM | TGI (U251 CNS): > 100 µM | TGI (LOX IMVI melanoma): > 100 µM | TGI (T-47D breast): > 100 µM | TGI (MDA-MB-231 breast): > 100 µM | TGI (PC-3 prostate): > 100 µM | TGI (SR leukemia): > 100 µM | TGI (SF-295 CNS): > 100 µM | TGI (SW-620 colon): > 100 µM | TGI (A549 NSCLC): > 100 µM | TGI (MALME-3M melanoma): > 100 µM | TGI (UACC-257 melanoma): > 100 µM | TGI (CCRF-CEM leukemia): > 100 µM | TGI (HOP-92 NSCLC): > 100 µM | TGI (OVCAR-4 ovarian): > 100 µM | TGI (HOP-62 NSCLC): > 100 µM | TGI (BT-549 breast): > 100 µM | TGI (K-562 leukemia): > 100 µM | TGI (HS 578T breast): > 100 µM | TGI (HCC-2998 colon): > 100 µM | TGI (COLO 205 colon): > 100 µM | TGI (HL-60(TB) leukemia): > 100 µM | TGI (NCI-H522 lung): > 100 µM | TGI (TK-10 renal): > 100 µM | TGI (HCT-15 colon): > 100 µM | TGI (NCI/ADR-RES ovarian): > 100 µM | TGI (SK-MEL-2 melanoma): > 100 µM | TGI (SK-MEL-5 melanoma): > 100 µM | TGI (HT29 colon): > 100 µM | TGI (MCF7 breast): > 100 µM | TGI (786-0 renal): > 100 µM | TGI (SNB-75 CNS): > 100 µM | TGI (UO-31 renal): > 100 µM | TGI (M14 melanoma): > 100 µM | TGI (SK-MEL-28 melanoma): > 100 µM | TGI (KM12 colon): > 100 µM | TGI (SF-539 CNS): > 100 µM | TGI (MDA-MB-435): > 100 µM | TGI (RXF 393 renal): > 100 µM | TGI (NCI-H226 lung): > 100 µM
